Experimental data from patent publication US8481457B2, “Method for the improved use of the production potential of transgenic plants” (priority 2007, dated 2013).

Experiments:
Type in all cases: in vivo
[1] = test system: cotton aphid (Aphis gossypii); assay: Example 4: Aphis gossypii on Cotton (DP444 BG/RR), dip application, kill in %; details: 0.8 ppm
Procedure: Individually potted transgenic cotton plants with Lepidoptera resistance and herbicide resistance (cultivar DP444 BG/RR), which are populated by a mixed population of the cotton aphid (Aphis gossypii) are treated by dip application with the respective active compound.
After the desired period of time, the kill in % is determined. 100% means that all aphids have been killed; 0% means that none of the aphids have been killed.

[2] = test system: armyworm (Spodoptera frugiperda); assay: Example 6: Spodoptera frugiperda on Cotton (DP444 BG/RR), dip application, kill in %
Procedure: Individually potted transgenic cotton plants with Lepidoptera resistance and herbicide resistance (cultivar DP444 BG/RR) are treated in 2 replications against the armyworm (Spodoptera frugiperda). Application is by dip application with the respective active compound at the desired application rate.
(§1) After the desired period of time, the kill in % is determined. 100% means that all caterpillars have been killed; 0% means that none of the caterpillars have been killed.

[3] = test system: larvae of the banded cucumber beetle (Diabrotica balteata); assay: Example 7: Diabrotica balteata on Maize, drench application, kill in %; details: 100 ppm
Procedure: Pots with in each case 5 transgenic maize plants having Coleoptera, Lepidoptera and/or herbicide resistance (cultivars LH244RR×LH324 and HCL 201CRW2RR2×LH 324) are treated in 2 replications against larvae of the banded cucumber beetle (Diabrotica balteata). Application is carried out by drench application with the respective active compound at the desired application rate.
After the desired period of time, the kill in % is determined. 100% means that all beetle larvae have been killed; 0% means that none of the beetle larvae have been killed.

[4] = test system: armyworm (Spodoptera frugiperda); assay: Example 9: Spodoptera frugiperda on Maize, dip application, kill in %; details: 100 ppm
Procedure: (§2) Pots with in each case 5 transgenic maize plants having Coleoptera, Lepidoptera and/or herbicide resistance (cultivars HC33CRW×LH287BTCRW, TR47×TR 7322 BT) are treated in 2 replications against the armyworm (Spodoptera frugiperda). Application is carried out by dip application with the respective active compound at the desired application rate.
as §1

[5] = test system: larvae of the cotton bollworm (Heliothis armigera); assay: Example 5: Heliothis armigera on Cotton (DP444 BG/RR), dip application, kill in %
Procedure: Individually potted transgenic cotton plants with Lepidoptera resistance and herbicide resistance (cultivar DP444 BG/RR) are treated in 2 replications against larvae of the cotton bollworm (Heliothis armigera). Application is carried out by dip application with the respective active compound at the desired application rate.
as §1

[6] = test system: larvae of the beet armyworm (Spodoptera exigua); assay: Example 8: Spodoptera exigua on Maize, dip application, kill in %; details: 100 ppm
Procedure: Pots with in each case 5 transgenic maize plants having Coleoptera, Lepidoptera and/or herbicide resistance (cultivars LH332RR×LH324BT, LH244RR×LH324, HC33CRW×LH287BTCRW and TR47×TR 7322 BT) are treated in 2 replications against larvae of the beet armyworm (Spodoptera exigua). Application is carried out by dip application with the respective active compound at the desired application rate.
as §1

[7] = test system: armyworm (Spodoptera frugiperda); assay: Example 10: Spodoptera frugiperda on Maize (Drench Application), kill in %; details: 100 ppm
Procedure: as §2, with “Coleoptera.” for “Coleoptera,”, “LH332RR×LH324BT, LH24-4RR×LH324 and FR 1064LL×FR 2108)” for “TR47×TR 7322 BT)”, “drench” for “dip”
as §1

SMILES | Kill rate in % after 1d (found) ([1]; after 1 d) | Kill rate in % after 4d (found) ([2]; 20 ppm, after 4 d) | Kill rate in % after 10d (found) [3] | Kill rate in % after 1d (found) ([4]; after 1 d) | Kill rate in % after 4d (found) [4] | Kill rate in % after 4d (found) ([5]; 20 ppm) | Kill rate in % after 6d (found) ([2]; 100 ppm, after 6 d) | Kill rate in % after 4d (found) [6] | Kill rate in % after 6d (found) [7] | Kill rate in % after 6d (found) ([1]; after 6 d) | Kill rate in % after 4d (found) ([5]; 100 ppm)
O=C1C=C(N(Cc2ccc(Cl)nc2)CC(F)F)CO1 [Compound I-5, 4-{[(6-chloropyrid-3-yl)methyl](2,2-difluoroethyl)amino}furan-2(5H)-one] | 40% | 0% | 45% | 0% | 10% | – | – | – | – | – | –
CN(Cc1cnc(Cl)c(F)c1)C1=CC(=O)OC1 [Compound I-6, 4-{[(6-chloro-5-fluoropyrid-3-yl)methyl](methyl)amino}furan-2(5H)-one] | – | – | – | – | 0% | 0% | 20% | 0% | 0% | – | –
O=C1C=C(N(CCF)Cc2ccc(Cl)nc2)CO1 [Compound I-4, 4-{[(6-chloropyrid-3-yl)methyl](2-fluoroethyl)amino}furan-2(5H)-one] | – | – | – | – | 0% | – | – | 0% | 15% | 15% | 0%
CN(Cc1ccc(Cl)nc1)C1=CC(=O)OC1 [Compound I-10, 4-{[(6-chloropyrid-3-yl)methyl](methyl)amino}furan-2(5H)-one] | – | – | – | – | – | – | – | 10% | 0% | – | –
